This series relates to protozoa. The experiment in a line: In vitro treatment of washed rumen protozoa: cell count and Live/Dead stain, % killed. Conditions: Yucca 1000 ppm where + Y, 2 hours, 39° C.; for % Viable: Live/Dead BacLight Stain; for % Killed by Treatment: standardized to blank. The class given is cell-based, rumen protozoa from a Holstein-Friesian cow. The procedure:
Rumen contents were obtained from a rumen cannulated Holstein-Friesian cow 10 hours post-prandial. […] Sedimented protozoa were aspirated to fresh CBD and washed twice with warm CBD. Protozoa were resuspended in warm CBD.
Crude yucca was diluted in water to the desired concentration. […] Ethoxyquin was diluted in absolute ethanol to obtain concentrations which correspond to field concentrations of 0.5 g, 1.0 g and 1.5 g.
Experimental treatments were as follows:
Individual treatment tubes were flushed with carbon dioxide prior to sealing and placement at 39° C. for 2 hours with occasional mixing by tube inversion.
Total number of protozoa present in each treatment was determined on the formalin fixed preparation and on the corresponding sample the percentage of live protozoa as indicated by the Live/Dead® BacLight Stain was also determined.
[…] was determined by multiplying the percent of live protozoa by the total protozoa present in each treatment. […] The number of viable protozoa for each treatment was then subtracted from the number of viable protozoa present in the blank (control) treatment. The difference is the number killed by the corresponding treatment. The treatments were then standardized to the blank by calculating a percentage killed by treatment.

The mark [1] stands for this setting: EQ 51.6 ug in vitro (0.5 g/head in vivo).
[2] abbreviates: EQ 103 ug in vitro (1 g/head in vivo).
Setting [3] is: EQ 154 ug in vitro (1.5 g/head in vivo).

Consider `CCOc1ccc2c(c1)C(C)=CC(C)(C)N2` [EQ, 1,2-dihydro-6-ethoxy-2,2,4-trimethylquinoline], for which, under setting [1], the “# Live” value was 7.13E+04, the “% Killed by Treatment using Ethanol control as Baseline” value (“% Killed by Treatment … as Baseline” for short) is 23%, the Cell count turned out to be 8.80E+04 and the “% Viable” value is 81%. Under setting [1], the “% Killed by Treatment” value is on record as 18%. For the same compound, under setting [2], the “# Live” value was 7.35E+04, the “% Killed by Treatment … as Baseline” value worked out at 20%, the Cell count worked out at 9.30E+04 and the “% Viable” value came to 79%. In addition, the “% Killed by Treatment” value under setting [2] is reported as 16%. Moreover, under setting [3], the “# Live” value turned out to be 5.40E+04, the “% Killed by Treatment … as Baseline” value came to 41%, the Cell count amounted to 9.00E+04 and the “% Viable” value amounted to 60%. The “% Killed by Treatment” value under setting [3] was determined as 38%.

The values are drawn from patent publication US8048458B2, “Saponin and preservative compositions for reduction of protozoa” (Sartec Corporation, priority 2006, dated 2011).
